In PubChem BioAssay AID328 (DTP/NCI, 2004):
Where “and” joins values, the source holds several entries; their conditions need not be identical. Equal entries are not always repeated. Toxic doses and inconclusive results are not listed.

Tested on: BDF1 mice, P388 leukemia ip, median survival T/C
Test: NCI In Vivo Anticancer Drug Screen. Data for tumor model P388 Leukemia (intraperitoneal) in B6D2F1 (BDF1) mice
Details: endpoint: median survival time, higher = longer survival
How it was run: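 Antitumour effect was judged in vivo: survival in drug-treated mice, normalised to that of vehicle-dosed controls, gives the reported T/C.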

[1] = dose: 100.0 mg/kg/injection, schedule: Q01DX009 (ip), vehicle: Klucel (hydroxypropylcellulose) (HPC)
[2] = dose: 200.0 mg/kg/injection, schedule: Q01DX009 (ip), vehicle: Klucel (hydroxypropylcellulose) (HPC)
[3] = dose: 400.0 mg/kg/injection, schedule: Q01DX009 (ip), vehicle: Klucel (hydroxypropylcellulose) (HPC)
[4] = dose: 50.0 mg/kg/injection, schedule: Q01DX009 (ip), vehicle: saline with Tween-80
[5] = dose: 100.0 mg/kg/injection, schedule: Q01DX009 (ip), vehicle: saline with Tween-80
[6] = dose: 100.0 mg/kg/injection, schedule: Q01DX009 (ip), vehicle: saline
[7] = dose: 200.0 mg/kg/injection, schedule: Q01DX009 (ip), vehicle: saline
[8] = dose: 400.0 mg/kg/injection, schedule: Q01DX009 (ip), vehicle: saline
[9] = dose: 100.0 mg/kg/injection, schedule: Q04DX003 (ip), vehicle: saline with Tween-80
[10] = dose: 200.0 mg/kg/injection, schedule: Q04DX003 (ip), vehicle: saline with Tween-80
[11] = dose: 400.0 mg/kg/injection, schedule: Q04DX003 (ip), vehicle: saline with Tween-80
[12] = dose: 200.0 mg/kg/injection, schedule: Q01DX009 (ip), vehicle: saline with Tween-80
[13] = dose: 25.0 mg/kg/injection, schedule: Q01DX009 (ip), vehicle: saline with Tween-80
[14] = dose: 400.0 mg/kg/injection, schedule: Q01DX009 (ip), vehicle: saline with Tween-80
[15] = dose: 50.0 mg/kg/injection, schedule: Q01DX009 (ip), vehicle: saline
[16] = dose: 100.0 mg/kg/injection, schedule: Q04DX003 (ip), vehicle: saline
[17] = dose: 200.0 mg/kg/injection, schedule: Q04DX003 (ip), vehicle: saline
[18] = dose: 400.0 mg/kg/injection, schedule: Q04DX003 (ip), vehicle: saline

## C#CCOC(=O)Nc1cccc2ccccc12
[1]
  T/C: 100 % of control
dose: 100.0 mg/kg/injection, schedule: Q04DX003 (ip), vehicle: Klucel (hydroxypropylcellulose) (HPC)
  T/C: 100 % of control
[2]
  T/C: 110 % of control
dose: 200.0 mg/kg/injection, schedule: Q04DX003 (ip), vehicle: Klucel (hydroxypropylcellulose) (HPC)
  T/C: 100 % of control
[3]
  T/C: 120 % of control
dose: 400.0 mg/kg/injection, schedule: Q04DX003 (ip), vehicle: Klucel (hydroxypropylcellulose) (HPC)
  T/C: 109 % of control

## C[CH2][Ge]([CH2]C)[CH2]C.C[CH2][Ge]([CH2]C)[CH2]C.C[CH2][Ge]([CH2]C)[O][Ge]([CH2]C)[CH2]C
[4]
  T/C: 115 % of control and 116 % of control
[5]
  T/C: 112 % of control

## O=C1c2c(Cl)c(Cl)c(Cl)c(Cl)c2C(=O)N1c1ccccc1-c1ccccc1
dose: 175.0 mg/kg/injection, schedule: Q01DX009 (ip), vehicle: saline with Tween-80
  T/C: 89 % of control
dose: 350.0 mg/kg/injection, schedule: Q01DX009 (ip), vehicle: saline with Tween-80
  T/C: 94 % of control

## COc1ccc(C(=NO)c2ccc(OC)cc2)cc1
[1]
  T/C: 109 % of control
[6]
  T/C: 100 % of control and 109 % of control
[2]
  T/C: 118 % of control
[7]
  T/C: 105 % of control and 109 % of control
[3]
  T/C: 118 % of control
[8]
  T/C: 120 % of control

## O=[N+]([O-])c1ccc(N2CCN(c3ccccc3)CC2)c2c1no[n+]2[O-]
dose: 75.0 mg/kg/injection, schedule: Q04DX003 (ip), vehicle: saline with Tween-80
  T/C: 108 % of control
dose: 150.0 mg/kg/injection, schedule: Q04DX003 (ip), vehicle: saline with Tween-80
  T/C: 111 % of control

## O=[N+]([O-])C1(CO)COC(c2ccccc2)OC1 (stereo not given)
dose: 100.0 mg/kg/injection, schedule: Q01DX009 (ip), vehicle: water
  T/C: 109 % of control
dose: 100.0 mg/kg/injection, schedule: Q04DX003 (ip), vehicle: water
  T/C: 95 % of control
dose: 200.0 mg/kg/injection, schedule: Q01DX009 (ip), vehicle: water
  T/C: 86 % of control
dose: 200.0 mg/kg/injection, schedule: Q04DX003 (ip), vehicle: water
  T/C: 100 % of control
dose: 400.0 mg/kg/injection, schedule: Q01DX009 (ip), vehicle: water
  T/C: 90 % of control
dose: 400.0 mg/kg/injection, schedule: Q04DX003 (ip), vehicle: water
  T/C: 104 % of control

## Nc1ccc(-c2ccc(N)cc2Br)c(Br)c1
[9]
  T/C: 100 % of control
[10]
  T/C: 95 % of control
[11]
  T/C: 104 % of control

## Oc1c(Cl)cc(Cl)cc1C1Nc2ccccc2-n2cccc21 (stereo not given)
[12]
  T/C: 88 % of control

## CC(=O)C(=O)N1Cc2cc3ccccc3nc2C1
dose: 50.0 mg/kg/injection, schedule: Q01DX001 (ip), vehicle: saline sonified
  T/C: 100 % of control
dose: 100.0 mg/kg/injection, schedule: Q01DX001 (ip), vehicle: saline sonified
  T/C: 100 % of control
dose: 200.0 mg/kg/injection, schedule: Q01DX001 (ip), vehicle: saline sonified
  T/C: 100 % of control

## COc1cccc2c1C(=O)c1c(O)c3c(c(O)c1C2=O)C[C@@](O)(C(=O)CO)C[C@@H]3OC1CC(N(C)C)C(O)C(C)O1 (stereo not given in full)
dose: 1.44 mg/kg/injection, schedule: Q04DX003 (ip), vehicle: water
  T/C: 170 % of control
dose: 2.4 mg/kg/injection, schedule: Q04DX003 (ip), vehicle: water
  T/C: 198 % of control
dose: 4.0 mg/kg/injection, schedule: Q04DX003 (ip), vehicle: water
  T/C: 89 % of control

## CCc1c(CC(=O)O)c2cc(C)ccc2n1Cc1ccc(Cl)cc1
[13]
  T/C: 104 % of control
[4]
  T/C: 109 % of control and 118 % of control
[5]
  T/C: 104 % of control and 109 % of control

## Cc1ccc(C[n+]2cccc3c([N+](=O)[O-])cccc32)cc1
dose: 12.5 mg/kg/injection, schedule: Q01DX009 (ip), vehicle: saline with Tween-80
  T/C: 108 % of control
[13]
  T/C: 103 % of control
[4]
  T/C: 113 % of control

## CC(=O)OCC(=O)[C@@]1(O)CC[C@H]2[C@@H]3C[C@H](C)C4=CC(=O)CC[C@]4(C)[C@H]3[C@@H](O)C[C@@]21C
[14]
  T/C: 90 % of control

## CC(O)CN1CNC(=S)NC1 (stereo not given)
[15]
  T/C: 99 % of control
[6]
  T/C: 101 % of control
[7]
  T/C: 106 % of control

## CCN(CC)CCCNc1c(OC)cc(C)c2sc3ccccc3c(=O)c12
dose: 12.5 mg/kg/injection, schedule: Q01DX009 (ip), vehicle: saline
  T/C: 93 % of control
dose: 25.0 mg/kg/injection, schedule: Q01DX009 (ip), vehicle: saline
  T/C: 108 % of control
[15]
  T/C: 112 % of control

## Cc1ccc2c(c1)NC(c1ccc(C(=O)O)cc1)c1cccn1-2 (stereo not given)
[4]
  T/C: 86 % of control
[5]
  T/C: 89 % of control
[12]
  T/C: 91 % of control

## CC1CCC2C(C)C(=O)OC2C2(C)C(=O)C=CC12 (stereo not given)
dose: 6.4 mg/kg/injection, schedule: Q01DX009 (ip), vehicle: alcohol
  T/C: 106 % of control
dose: 9.6 mg/kg/injection, schedule: Q01DX009 (ip), vehicle: alcohol
  T/C: 100 % of control
dose: 14.0 mg/kg/injection, schedule: Q01DX009 (ip), vehicle: alcohol
  T/C: 122 % of control
dose: 22.0 mg/kg/injection, schedule: Q01DX009 (ip), vehicle: alcohol
  T/C: 108 % of control

## Nc1ccn(C2OC(COC3CCCCO3)C(OC3CCCCO3)C2OC2CCCCO2)c(=O)n1 (stereo not given)
dose: 50.0 mg/kg/injection, schedule: Q01DX007 (ip), vehicle: saline
  T/C: 108 % of control
dose: 100.0 mg/kg/injection, schedule: Q01DX007 (ip), vehicle: saline
  T/C: 94 % of control
[16]
  T/C: 90 % of control
dose: 200.0 mg/kg/injection, schedule: Q01DX007 (ip), vehicle: saline
  T/C: 94 % of control
[17]
  T/C: 86 % of control
dose: 400.0 mg/kg/injection, schedule: Q01DX007 (ip), vehicle: saline
  T/C: 100 % of control
[18]
  T/C: 104 % of control

## COc1cc([N+](=O)[O-])cc(OC)c1OC
[4]
  T/C: 100 % of control
[5]
  T/C: 94 % of control
[12]
  T/C: 102 % of control
[14]
  T/C: 91 % of control

## CC(C(Cl)c1ccccc1)S(=O)c1ccccc1 (stereo not given)
[4]
  T/C: 108 % of control
[5]
  T/C: 103 % of control
[12]
  T/C: 105 % of control

## CO/C(O)=c1/nc2c(n(C)c1=N)=CCCC2
[4]
  T/C: 100 % of control
[5]
  T/C: 104 % of control

## NS(=O)(=O)c1ccc(C(=O)NO)cc1
dose: 100.0 mg/kg/injection, schedule: Q01DX001 (ip), vehicle: saline
  T/C: 100 % of control
dose: 200.0 mg/kg/injection, schedule: Q01DX001 (ip), vehicle: saline
  T/C: 108 % of control
dose: 400.0 mg/kg/injection, schedule: Q01DX001 (ip), vehicle: saline
  T/C: 108 % of control

## O=[N+]([O-])c1ccc2c(c1)[nH]c1ccccc12
[4]
  T/C: 113 % of control
[5]
  T/C: 115 % of control
[12]
  T/C: 114 % of control

## c1ccc2c(c1)Sc1cnccc1N2CC1CO1 (stereo not given)
[16]
  T/C: 104 % of control
[17]
  T/C: 90 % of control
[18]
  T/C: 95 % of control

## [NH-]CC(=O)[N-]CC(=O)O.[NH-]CC(=O)[N-]CC(=O)O.[Ni]
dose: 3.0 mg/kg/injection, schedule: Q01DX009 (ip), vehicle: saline
  T/C: 100 % of control
dose: 6.0 mg/kg/injection, schedule: Q01DX009 (ip), vehicle: saline
  T/C: 103 % of control
dose: 12.0 mg/kg/injection, schedule: Q01DX009 (ip), vehicle: saline
  T/C: 116 % of control
dose: 12.5 mg/kg/injection, schedule: Q04DX003 (ip), vehicle: saline
  T/C: 104 % of control
dose: 18.0 mg/kg/injection, schedule: Q01DX009 (ip), vehicle: saline
  T/C: 110 % of control
dose: 25.0 mg/kg/injection, schedule: Q04DX003 (ip), vehicle: saline
  T/C: 109 % of control
dose: 50.0 mg/kg/injection, schedule: Q04DX003 (ip), vehicle: saline
  T/C: 100 % of control and 118 % of control

## C/C(=N/N(C)C)c1ccccn1
[5]
  T/C: 103 % of control
[9]
  T/C: 104 % of control
[12]
  T/C: 100 % of control
[10]
  T/C: 100 % of control
[11]
  T/C: 100 % of control

## O=C(O)CNC(CSCc1ccccc1)CSCc1ccccc1
dose: 25.0 mg/kg/injection, schedule: Q04DX003 (ip), vehicle: saline with Tween-80
  T/C: 101 % of control
[15]
  T/C: 93 % of control
dose: 50.0 mg/kg/injection, schedule: Q04DX003 (ip), vehicle: saline with Tween-80
  T/C: 106 % of control
[6]
  T/C: 112 % of control
[9]
  T/C: 98 % of control
[7]
  T/C: 111 % of control
[10]
  T/C: 97 % of control
[8]
  T/C: 116 % of control
[11]
  T/C: 97 % of control
